# The source made the active and inactive calls. The rule behind the calls is not given here.
# Molecular target: T1, Nuclear factor erythroid 2-related factor 2 (Rattus norvegicus) (UniProt O54968)
# T1 sequence (whole entry): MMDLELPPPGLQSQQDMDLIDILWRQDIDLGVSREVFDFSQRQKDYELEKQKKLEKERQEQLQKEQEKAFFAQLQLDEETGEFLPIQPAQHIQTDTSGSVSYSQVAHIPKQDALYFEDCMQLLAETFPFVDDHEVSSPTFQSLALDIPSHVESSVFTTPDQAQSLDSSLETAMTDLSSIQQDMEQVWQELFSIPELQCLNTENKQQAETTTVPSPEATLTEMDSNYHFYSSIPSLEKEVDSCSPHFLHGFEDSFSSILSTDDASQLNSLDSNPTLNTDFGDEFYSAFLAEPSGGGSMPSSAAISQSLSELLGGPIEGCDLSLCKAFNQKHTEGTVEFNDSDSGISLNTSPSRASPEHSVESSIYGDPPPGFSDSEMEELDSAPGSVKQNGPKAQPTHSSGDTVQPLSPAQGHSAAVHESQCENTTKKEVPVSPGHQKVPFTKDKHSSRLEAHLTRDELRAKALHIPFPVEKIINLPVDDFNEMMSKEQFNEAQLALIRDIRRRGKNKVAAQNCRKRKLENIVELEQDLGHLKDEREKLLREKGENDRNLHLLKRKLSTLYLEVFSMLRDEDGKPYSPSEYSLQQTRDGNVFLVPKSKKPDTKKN
# Test: Induction of nuclear translocation of Nrf2 in rat PC12 cells at 4 uM after 1.5 hrs by Western blot analysis
# Assay type: cell-based
# Conditions: PC-12
row,Activity,Structure (SMILES)
1,Active,CC(C)c1ccc(S(=O)(=O)Nc2cc(Sc3nc[nH]n3)c(O)c3ccccc23)cc1

# Molecular target: T1, Nuclear factor erythroid 2-related factor 2 (Rattus norvegicus)
# Test: Induction of nuclear translocation of Nrf2 in rat PC12 cells at 4 uM after 4.5 hrs by Western blot analysis
# Assay type: cell-based
# Conditions: PC-12
row,Activity,Structure (SMILES)
1,inactive,CC(C)c1ccc(S(=O)(=O)Nc2cc(Sc3nc[nH]n3)c(O)c3ccccc23)cc1

# Molecular target: T1, Nuclear factor erythroid 2-related factor 2 (Rattus norvegicus)
# Test: Activation of Nrf2 in rat PC12 cells assessed as increase of HO-1 mRNA level at 1 to 4 uM after 4.5 to 9 hrs by qRT-PCR analysis
# Assay type: cell-based
# Conditions: PC-12
row,Activity,Structure (SMILES)
1,inactive,COc1ccc(S(=O)(=O)Nc2ccc(NS(=O)(=O)c3ccc(OC)cc3)c3ccccc23)cc1

# Molecular target: T1, Nuclear factor erythroid 2-related factor 2 (Rattus norvegicus)
# Test: Activation of Nrf2 in rat PC12 cells assessed as increase of NQO-1 mRNA level at 1 to 4 uM after 4.5 to 9 hrs by qRT-PCR analysis
# Assay type: cell-based
# Conditions: PC-12
row,Activity,Structure (SMILES)
1,inactive,COc1ccc(S(=O)(=O)Nc2ccc(NS(=O)(=O)c3ccc(OC)cc3)c3ccccc23)cc1

# Molecular target: T1, Nuclear factor erythroid 2-related factor 2 (Rattus norvegicus)
# Test: Activation of Nrf2 in rat PC12 cells assessed as increase of HO-1 mRNA level at 1 to 4 uM by qRT-PCR analysis
# Assay type: cell-based
# Conditions: PC-12, TDE = time-dependent effect
row,Activity,Structure (SMILES)
1,tde,CC(C)c1ccc(S(=O)(=O)Nc2cc(Sc3nc[nH]n3)c(O)c3ccccc23)cc1

# Molecular target: T1, Nuclear factor erythroid 2-related factor 2 (Rattus norvegicus)
# Test: Activation of Nrf2 in rat PC12 cells assessed as increase of HO-1 mRNA level after 4.5 to 9 hrs by qRT-PCR analysis
# Assay type: cell-based
# Conditions: PC-12
row,Activity,Structure (SMILES)
1,Dose-dependent effect,CC(C)c1ccc(S(=O)(=O)Nc2cc(Sc3nc[nH]n3)c(O)c3ccccc23)cc1

# Molecular target: Keap1/Nrf2 (Homo sapiens, UniProt Q14145)
# Sequence (Q16236 whole entry): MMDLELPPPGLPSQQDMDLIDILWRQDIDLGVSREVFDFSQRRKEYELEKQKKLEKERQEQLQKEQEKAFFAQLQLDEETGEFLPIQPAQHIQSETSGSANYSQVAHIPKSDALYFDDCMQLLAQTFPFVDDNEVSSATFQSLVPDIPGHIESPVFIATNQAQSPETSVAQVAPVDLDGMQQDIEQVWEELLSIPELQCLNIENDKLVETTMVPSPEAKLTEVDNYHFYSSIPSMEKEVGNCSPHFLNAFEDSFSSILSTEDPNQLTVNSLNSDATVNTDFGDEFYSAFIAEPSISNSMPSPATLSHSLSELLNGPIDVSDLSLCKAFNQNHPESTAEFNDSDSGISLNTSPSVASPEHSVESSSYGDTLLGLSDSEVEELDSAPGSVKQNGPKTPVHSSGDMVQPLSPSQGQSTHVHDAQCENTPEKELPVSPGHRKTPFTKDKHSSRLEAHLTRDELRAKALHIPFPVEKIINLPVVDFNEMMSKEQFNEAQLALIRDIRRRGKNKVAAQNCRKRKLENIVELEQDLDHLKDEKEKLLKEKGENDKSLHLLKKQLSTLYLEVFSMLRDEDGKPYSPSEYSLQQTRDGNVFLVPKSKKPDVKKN
# Sequence (Q14145 whole entry): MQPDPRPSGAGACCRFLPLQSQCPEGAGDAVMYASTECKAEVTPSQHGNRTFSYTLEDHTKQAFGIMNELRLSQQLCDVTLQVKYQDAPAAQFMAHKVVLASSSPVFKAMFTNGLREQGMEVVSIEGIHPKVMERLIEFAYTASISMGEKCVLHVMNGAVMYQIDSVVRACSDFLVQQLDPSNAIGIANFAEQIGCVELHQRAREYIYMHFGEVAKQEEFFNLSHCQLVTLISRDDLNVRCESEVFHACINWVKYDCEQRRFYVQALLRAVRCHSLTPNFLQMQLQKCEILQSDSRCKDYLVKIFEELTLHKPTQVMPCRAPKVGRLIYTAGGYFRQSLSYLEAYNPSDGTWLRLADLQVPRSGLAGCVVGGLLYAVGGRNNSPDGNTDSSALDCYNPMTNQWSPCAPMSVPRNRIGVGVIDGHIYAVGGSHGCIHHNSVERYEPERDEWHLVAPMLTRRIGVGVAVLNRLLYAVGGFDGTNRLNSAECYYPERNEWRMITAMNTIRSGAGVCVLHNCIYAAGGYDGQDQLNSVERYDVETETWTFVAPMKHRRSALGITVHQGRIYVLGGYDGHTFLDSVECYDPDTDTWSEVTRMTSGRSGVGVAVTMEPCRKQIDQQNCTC
# Test: Inhibition of Keap1-Nrf2 (unknown origin) interaction assessed as compound's equilibrium dissociation constant after 60 mins by fluorescence anisotropy assay
# Assay type: protein assay
# Conditions: not given
row,Kd [µM],Structure (SMILES)
1,3.6,Cc1cc(C)c(S(=O)(=O)Nc2cc(Sc3nc[nH]n3)c(O)c3ccccc23)cc1C
2,4.2,Cc1cc(C)c(S(=O)(=O)Nc2cc(SCC(=O)O)c(O)c3ccccc23)c(C)c1
3,> 100,Cc1ccc(S(=O)(=O)Nc2cc(Sc3nc4ccccc4s3)c(O)c3ccccc23)cc1
4,> 100,Cc1ccc(S(=O)(=O)Nc2cc(Sc3cccc4cccnc34)c(O)c3ccccc23)cc1
5,36.6,O=C(O)CSc1cc(NS(=O)(=O)c2cccs2)c2ccccc2c1O
6,61.2,O=S(=O)(Nc1cc(Sc2nc[nH]n2)c(O)c2ccccc12)c1ccccc1
7,6.4,CC(C)c1ccc(S(=O)(=O)Nc2cc(SCC(=O)O)c(O)c3ccccc23)cc1
8,> 100,Cc1ccc(S(=O)(=O)Nc2cc(Sc3nc(C)cc(C)n3)c(O)c3ccccc23)cc1
9,15.3,O=C(O)CSc1cc(NS(=O)(=O)c2ccc(Cl)cc2)c2ccccc2c1O
10,> 100,Cc1cc(C)c(S(=O)(=O)Nc2cc3sc(=O)oc3c3ccccc23)cc1C
11,3.1,CCOc1ccc(S(=O)(=O)Nc2cc(Sc3nc[nH]n3)c(O)c3ccccc23)cc1
12,> 100,CC(C)(C)c1ccc(S(=O)(=O)Nc2cc(SCc3ccco3)c(O)c3ccccc23)cc1
13,7.8,O=C(O)CSc1cc(NS(=O)(=O)c2ccc3ccccc3c2)c2ccccc2c1O
14,> 100,Cc1ccc(S(=O)(=O)Nc2cc(SCc3ccccc3)c(O)c3ccccc23)cc1
15,42.9,O=C1NN(c2ccccc2)C(=O)/C1=C\c1ccc(-c2ccc(C(=O)O)c(Cl)c2)o1
16,30.2,O=C(O)CSc1cc(NS(=O)(=O)c2ccc(F)cc2)c2ccccc2c1O
17,6.8,COc1ccc(S(=O)(=O)Nc2cc(Sc3nc[nH]n3)c(O)c3ccccc23)cc1
18,18.9,O=C(O)CSc1cc(NS(=O)(=O)c2cccc3cccnc23)c2ccccc2c1O
19,12.2,Cc1cc(F)ccc1S(=O)(=O)Nc1cc(SCC(=O)O)c(O)c2ccccc12
20,55.5,O=S(=O)(Nc1cc(Sc2nnnn2-c2ccccc2)c(O)c2ccccc12)c1ccccc1
21,> 100,COc1ccc(S(=O)(=O)Nc2cc(Sc3ccccc3)c(O)c3ccccc23)cc1
22,49.2,O=C1NN(c2cccc(Cl)c2)C(=O)/C1=C\c1ccc(-c2cccc(C(=O)O)c2)o1
23,75.2,Cc1oc2c(cc(NS(=O)(=O)c3ccc(Cl)cc3)c3ccccc32)c1C(=O)O
24,14.7,O=C(O)CSc1cc(NS(=O)(=O)c2ccc(Br)cc2)c2ccccc2c1O
25,39.5,O=C1NN(c2cccc(Cl)c2)C(=O)/C1=C\c1ccc(-c2ccc(Br)cc2C(=O)O)o1
26,> 100,Cc1ccc(S(=O)(=O)Nc2ccc(O)c(Sc3nc[nH]n3)c2)cc1
27,3.6,O=S(=O)(Nc1cc(Sc2nc[nH]n2)c(O)c2ccccc12)c1ccc2ccccc2c1
28,> 100,CC(=O)Oc1c(SCC(=O)O)cc(NS(=O)(=O)c2ccc(F)cc2)c2ccccc12
29,13.1,O=S(=O)(Nc1cc(Sc2nc[nH]n2)c(O)c2ccccc12)c1ccc(Br)cc1
30,15.4,Cc1ccc(S(=O)(=O)Nc2cc(SCC(=O)O)c(O)c3ccccc23)cc1

# Further lines, the molecule ahead of its results:
row,Structure (SMILES),Kd [µM]
1,COc1ccc(-n2cccc2/C=C2\SC(=O)N(CC(=O)Nc3ccc(C)cc3)C2=O)cc1,> 100
2,Cc1cccc(NC(=O)CN2C(=O)S/C(=C\c3cccn3-c3cccc(C(=O)O)c3)C2=O)c1,68.2
3,Cc1ccc(NC(=O)CN2C(=O)S/C(=C\c3cccn3-c3cccc(C(=O)O)c3)C2=O)cc1C,28.9
4,Cc1ccc(NC(=O)CN2C(=O)S/C(=C\c3cccn3C)C2=O)c(C)c1,> 100
5,Cc1ccc(N2NC(=O)/C(=C/c3ccc(-c4ccc(S(=O)(=O)Nc5nccs5)cc4)o3)C2=O)cc1,> 100
6,Cc1ccc(NC(=O)CN2C(=O)S/C(=C\c3cccn3-c3cccc(C(=O)O)c3)C2=O)c(C)c1,47.6
7,Cc1cccc(C)c1NC(=O)CN1C(=O)S/C(=C\c2cccn2-c2cccc(C(=O)O)c2)C1=O,> 100
8,Cc1cc(C)c(S(=O)(=O)Nc2cc(Cl)c(O)c(Sc3nc[nH]n3)c2)cc1C,20.9
9,CN1C(=O)S/C(=C\c2cccn2-c2cccc(C(=O)O)c2)C1=O,> 100
10,O=C1NN(c2cccc(Cl)c2)C(=O)/C1=C\c1ccc(-c2ccc(C(=O)O)c(Cl)c2)o1,15.2
11,NC(=O)c1ccc(-c2ccc(/C=C3/C(=O)NN(c4ccc(F)cc4)C3=O)o2)cc1,> 100
12,Cc1cccc(N2NC(=O)/C(=C/c3ccc(-c4ccc(S(N)(=O)=O)cc4)o3)C2=O)c1,> 100
13,Cc1ccccc1NC(=O)CN1C(=O)S/C(=C\c2cccn2-c2cccc(C(=O)O)c2)C1=O,10.4
14,COc1ccc(NC(=O)CN2C(=O)S/C(=C\c3cccn3-c3ccc(C(=O)O)cc3)C2=O)cc1,23.8
15,Cc1ccc(/N=C2/S/C(=C\c3c(C)n(CC(=O)O)c4ccccc34)C(=O)N2C)cc1,35.4
16,COC(=O)c1ccc(N2NC(=O)/C(=C/c3ccc(-c4ccc(S(N)(=O)=O)cc4)o3)C2=O)cc1,> 100
17,O=C(CN1C(=O)S/C(=C\c2cccn2-c2cccc(C(=O)O)c2)C1=O)Nc1ccc(F)cc1,> 100
18,O=C(CN1C(=O)S/C(=C\c2cccn2-c2cccc(C(=O)O)c2)C1=O)Nc1ccc(Cl)cc1,> 100
19,O=C(CN1C(=O)S/C(=C\c2cccn2-c2ccc(O)cc2)C1=O)Nc1ccccc1F,> 100
20,COc1ccc(-n2cccc2/C=C2\SC(=O)N(CC(=O)Nc3cccc(C)c3)C2=O)cc1,> 100
21,O=C1NN(c2cccc(F)c2)C(=O)/C1=C\c1ccc(-c2ccc(C(=O)O)cc2)o1,77.8
22,O=C1NN(c2ccc(Br)cc2)C(=O)/C1=C\c1ccc(-c2ccccc2)o1,> 100
23,CCOc1cc(/C=C2\N=C(c3ccccc3)OC2=O)cc(Br)c1OCC(=O)O,29.5

# Molecular target: Kelch-like ECH-associated protein 1 (Homo sapiens) (UniProt Q14145)
# Sequence (Q14145 whole entry): as above
# Conditions: not given
row,ΔTm [°C],Structure (SMILES)
1,1,COc1ccc(S(=O)(=O)Nc2ccc(NS(=O)(=O)c3ccc(OC)cc3)c3ccccc23)cc1
2,1,Cc1ccc(S(=O)(=O)Nc2cc(Sc3nc4ccccc4s3)c(O)c3ccccc23)cc1
3,1,Cc1cc(C)c(S(=O)(=O)Nc2cc3sc(=O)oc3c3ccccc23)cc1C
4,4,CCOc1ccc(S(=O)(=O)Nc2cc(Sc3nc[nH]n3)c(O)c3ccccc23)cc1

# The remaining lines, values behind:
row,Structure (SMILES),ΔTm [°C]
1,O=C1NN(c2cccc(Cl)c2)C(=O)/C1=C\c1ccc(-c2ccc(C(=O)O)c(Cl)c2)o1,2
2,Cc1ccccc1NC(=O)CN1C(=O)S/C(=C\c2cccn2-c2cccc(C(=O)O)c2)C1=O,1
